According to patent US9513294B2, “Megastokes amino-triazolyl-BODIPY compounds and applications to live neuron staining and human serum albumin FA1 drug site probing” (National University of Singapore, priority 2012, dated 2016):

Assay: Quantum yield measurements versus Acridine Yellow in EtOH
Type: physicochemical
Details: BDCAC library, Table 3; excitation 460 nm
How it was run: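 Fluorescence quantum yield is relative to Acridine Yellow in EtOH (Φ 0.47), with excitation at 460 nm. Integrated emission at 510–700 nm was corrected for absorbance at the excitation wavelength and for solvent refractive index.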
With `CC(=O)Nc1ccc(C2=C3C=CC(N4CCCCC4)=[N+]3[B-](F)(F)n3c2ccc3-n2cc(C3(O)CCCC3)nn2)cc1` [BDCAC-67] the “φ (quantum yield)” value was 0.8%.
With `CC(=O)Nc1ccc(C2=C3C=CC(N4CCCCC4)=[N+]3[B-](F)(F)n3c2ccc3-n2cc(CO)nn2)cc1` [BDCAC-70] the “φ (quantum yield)” value was 0.7%.

Same assay, conditions: BDCCA library, Table 4; excitation 460 nm
In the case of `CC(C)(C)c1cn(-c2ccc3n2[B-](F)(F)[N+]2=C(N4CCCCC4)C=CC2=C3c2ccc(NC(=O)CCl)cc2)nn1` [BDCCA-1], the “φ (quantum yield)” value is reported as 0.7%.
In the case of `CN(C)Cc1cn(-c2ccc3n2[B-](F)(F)[N+]2=C(N4CCCCC4)C=CC2=C3c2ccc(NC(=O)CCl)cc2)nn1` [BDCCA-2], the “φ (quantum yield)” value is reported as 0.4%.
For `O=C(CCl)Nc1ccc(C2=C3C=CC(N4CCCCC4)=[N+]3[B-](F)(F)n3c2ccc3-n2cc(C3CC3)nn2)cc1` [BDCCA-4], the “φ (quantum yield)” value was 1.1%.
For `O=C(CCl)Nc1ccc(C2=C3C=CC(N4CCCCC4)=[N+]3[B-](F)(F)n3c2ccc3-n2cc(C3CCCC3)nn2)cc1` [BDCCA-5], the “φ (quantum yield)” value was 0.9%.
With `O=C(CCl)Nc1ccc(C2=C3C=CC(N4CCCCC4)=[N+]3[B-](F)(F)n3c2ccc3-n2cc(C3CCCCC3)nn2)cc1` [BDCCA-6] the “φ (quantum yield)” value was 2.3%.
For `O=C(CCl)Nc1ccc(C2=C3C=CC(N4CCCCC4)=[N+]3[B-](F)(F)n3c2ccc3-n2cc(CC3CCCC3)nn2)cc1` [BDCCA-7], the “φ (quantum yield)” value was 0.9%.
With `O=C(CCl)Nc1ccc(C2=C3C=CC(N4CCCCC4)=[N+]3[B-](F)(F)n3c2ccc3-n2cc(CC3CCCCC3)nn2)cc1` [BDCCA-8] the “φ (quantum yield)” value was 0.6%.
With `O=C(CCl)Nc1ccc(C2=C3C=CC(N4CCCCC4)=[N+]3[B-](F)(F)n3c2ccc3-n2cc(-c3ccccc3)nn2)cc1` [BDCCA-9] the “φ (quantum yield)” value was 1.1%.
For `Cc1ccc(-c2cn(-c3ccc4n3[B-](F)(F)[N+]3=C(N5CCCCC5)C=CC3=C4c3ccc(NC(=O)CCl)cc3)nn2)cc1` [BDCCA-10], the “φ (quantum yield)” value was 2.9%.
In the case of `CC(C)(C)c1ccc(-c2cn(-c3ccc4n3[B-](F)(F)[N+]3=C(N5CCCCC5)C=CC3=C4c3ccc(NC(=O)CCl)cc3)nn2)cc1` [BDCCA-11], the “φ (quantum yield)” value is reported as 1.3%.
With `CCCCc1ccc(-c2cn(-c3ccc4n3[B-](F)(F)[N+]3=C(N5CCCCC5)C=CC3=C4c3ccc(NC(=O)CCl)cc3)nn2)cc1` [BDCCA-12] the “φ (quantum yield)” value was 1.6%.
For `CN(C)c1ccc(-c2cn(-c3ccc4n3[B-](F)(F)[N+]3=C(N5CCCCC5)C=CC3=C4c3ccc(NC(=O)CCl)cc3)nn2)cc1` [BDCCA-13], the “φ (quantum yield)” value was 0.1%.
In the case of `COc1cc(OC)cc(-c2cn(-c3ccc4n3[B-](F)(F)[N+]3=C(N5CCCCC5)C=CC3=C4c3ccc(NC(=O)CCl)cc3)nn2)c1` [BDCCA-14], the “φ (quantum yield)” value is reported as 0.8%.
With `O=C(CCl)Nc1ccc(C2=C3C=CC(N4CCCCC4)=[N+]3[B-](F)(F)n3c2ccc3-n2cc(-c3ccc(OC(F)(F)F)cc3)nn2)cc1` [BDCCA-15] the “φ (quantum yield)” value was 2.2%.
For `O=C(CCl)Nc1ccc(C2=C3C=CC(N4CCCCC4)=[N+]3[B-](F)(F)n3c2ccc3-n2cc(-c3ccc(F)c(F)c3)nn2)cc1` [BDCCA-16], the “φ (quantum yield)” value was 0.7%.
In the case of `O=C(CCl)Nc1ccc(C2=C3C=CC(N4CCCCC4)=[N+]3[B-](F)(F)n3c2ccc3-n2cc(COc3ccccc3)nn2)cc1` [BDCCA-17], the “φ (quantum yield)” value is reported as 0.7%.
For `CN(Cc1ccccc1)Cc1cn(-c2ccc3n2[B-](F)(F)[N+]2=C(N4CCCCC4)C=CC2=C3c2ccc(NC(=O)CCl)cc2)nn1` [BDCCA-18], the “φ (quantum yield)” value was 0.7%.
For `O=C(CCl)Nc1ccc(C2=C3C=CC(N4CCCCC4)=[N+]3[B-](F)(F)n3c2ccc3-n2cc(CCc3ccccc3)nn2)cc1` [BDCCA-19], the “φ (quantum yield)” value was 1.0%.

Assay: Absorbance and fluorescence emission spectra (SpectraMax M2)
Type: physicochemical
Details: BDCAC library, Table 3
How it was run: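 Absorbance and emission maxima measured on a SpectraMax M2 spectrophotometer, which also gave quantum yield data; analysis in GraphPrism.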
For `CC(=O)Nc1ccc(C2=C3C=CC(N4CCCCC4)=[N+]3[B-](F)(F)n3c2ccc3-n2cc(C3(O)CCCC3)nn2)cc1` [BDCAC-67], the “λmax Absorp.” value was 469 nm and the “λmax Emission” value was 592 nm.
In the case of `CC(=O)Nc1ccc(C2=C3C=CC(N4CCCCC4)=[N+]3[B-](F)(F)n3c2ccc3-n2cc(CO)nn2)cc1` [BDCAC-70], the “λmax Absorp.” value is reported as 467 nm and the “λmax Emission” value is reported as 583 nm.

Same assay, conditions: BDCCA library, Table 4
With `CC(C)(C)c1cn(-c2ccc3n2[B-](F)(F)[N+]2=C(N4CCCCC4)C=CC2=C3c2ccc(NC(=O)CCl)cc2)nn1` [BDCCA-1] the “λmax Absorp.” value was 468 nm and the “λmax Emission” value was 581 nm.
With `CN(C)Cc1cn(-c2ccc3n2[B-](F)(F)[N+]2=C(N4CCCCC4)C=CC2=C3c2ccc(NC(=O)CCl)cc2)nn1` [BDCCA-2] the “λmax Absorp.” value was 461 nm and the “λmax Emission” value was 586 nm.
With `O=C(CCl)Nc1ccc(C2=C3C=CC(N4CCCCC4)=[N+]3[B-](F)(F)n3c2ccc3-n2cc(C3CC3)nn2)cc1` [BDCCA-4] the “λmax Absorp.” value was 467 nm and the “λmax Emission” value was 577 nm.
In the case of `O=C(CCl)Nc1ccc(C2=C3C=CC(N4CCCCC4)=[N+]3[B-](F)(F)n3c2ccc3-n2cc(C3CCCC3)nn2)cc1` [BDCCA-5], the “λmax Absorp.” value is reported as 468 nm and the “λmax Emission” value is reported as 588 nm.
With `O=C(CCl)Nc1ccc(C2=C3C=CC(N4CCCCC4)=[N+]3[B-](F)(F)n3c2ccc3-n2cc(C3CCCCC3)nn2)cc1` [BDCCA-6] the “λmax Absorp.” value was 467 nm and the “λmax Emission” value was 555 nm.
In the case of `O=C(CCl)Nc1ccc(C2=C3C=CC(N4CCCCC4)=[N+]3[B-](F)(F)n3c2ccc3-n2cc(CC3CCCC3)nn2)cc1` [BDCCA-7], the “λmax Absorp.” value is reported as 468 nm and the “λmax Emission” value is reported as 590 nm.
With `O=C(CCl)Nc1ccc(C2=C3C=CC(N4CCCCC4)=[N+]3[B-](F)(F)n3c2ccc3-n2cc(CC3CCCCC3)nn2)cc1` [BDCCA-8] the “λmax Absorp.” value was 468 nm and the “λmax Emission” value was 589 nm.
For `O=C(CCl)Nc1ccc(C2=C3C=CC(N4CCCCC4)=[N+]3[B-](F)(F)n3c2ccc3-n2cc(-c3ccccc3)nn2)cc1` [BDCCA-9], the “λmax Absorp.” value was 464 nm and the “λmax Emission” value was 577 nm.
In the case of `Cc1ccc(-c2cn(-c3ccc4n3[B-](F)(F)[N+]3=C(N5CCCCC5)C=CC3=C4c3ccc(NC(=O)CCl)cc3)nn2)cc1` [BDCCA-10], the “λmax Absorp.” value is reported as 463 nm and the “λmax Emission” value is reported as 558 nm.
For `CC(C)(C)c1ccc(-c2cn(-c3ccc4n3[B-](F)(F)[N+]3=C(N5CCCCC5)C=CC3=C4c3ccc(NC(=O)CCl)cc3)nn2)cc1` [BDCCA-11], the “λmax Absorp.” value was 464 nm and the “λmax Emission” value was 587 nm.
With `CCCCc1ccc(-c2cn(-c3ccc4n3[B-](F)(F)[N+]3=C(N5CCCCC5)C=CC3=C4c3ccc(NC(=O)CCl)cc3)nn2)cc1` [BDCCA-12] the “λmax Absorp.” value was 464 nm and the “λmax Emission” value was 552 nm.
In the case of `CN(C)c1ccc(-c2cn(-c3ccc4n3[B-](F)(F)[N+]3=C(N5CCCCC5)C=CC3=C4c3ccc(NC(=O)CCl)cc3)nn2)cc1` [BDCCA-13], the “λmax Absorp.” value is reported as 467 nm and the “λmax Emission” value is reported as 627 nm.
With `COc1cc(OC)cc(-c2cn(-c3ccc4n3[B-](F)(F)[N+]3=C(N5CCCCC5)C=CC3=C4c3ccc(NC(=O)CCl)cc3)nn2)c1` [BDCCA-14] the “λmax Absorp.” value was 463 nm and the “λmax Emission” value was 589 nm.
For `O=C(CCl)Nc1ccc(C2=C3C=CC(N4CCCCC4)=[N+]3[B-](F)(F)n3c2ccc3-n2cc(-c3ccc(OC(F)(F)F)cc3)nn2)cc1` [BDCCA-15], the “λmax Absorp.” value was 462 nm and the “λmax Emission” value was 537 nm.
With `O=C(CCl)Nc1ccc(C2=C3C=CC(N4CCCCC4)=[N+]3[B-](F)(F)n3c2ccc3-n2cc(-c3ccc(F)c(F)c3)nn2)cc1` [BDCCA-16] the “λmax Absorp.” value was 462 nm and the “λmax Emission” value was 581 nm.
In the case of `O=C(CCl)Nc1ccc(C2=C3C=CC(N4CCCCC4)=[N+]3[B-](F)(F)n3c2ccc3-n2cc(COc3ccccc3)nn2)cc1` [BDCCA-17], the “λmax Absorp.” value is reported as 464 nm and the “λmax Emission” value is reported as 584 nm.
With `CN(Cc1ccccc1)Cc1cn(-c2ccc3n2[B-](F)(F)[N+]2=C(N4CCCCC4)C=CC2=C3c2ccc(NC(=O)CCl)cc2)nn1` [BDCCA-18] the “λmax Absorp.” value was 465 nm and the “λmax Emission” value was 587 nm.
In the case of `O=C(CCl)Nc1ccc(C2=C3C=CC(N4CCCCC4)=[N+]3[B-](F)(F)n3c2ccc3-n2cc(CCc3ccccc3)nn2)cc1` [BDCCA-19], the “λmax Absorp.” value is reported as 466 nm and the “λmax Emission” value is reported as 578 nm.
